Experimental data taken from US20150374689A1, “Use of Levosimendan to Treat Left Ventricular Systolic Dysfunction in Patients Undergoing Cardiac Surgery Requiring Cardiopulmonary Bypass” (TENAX Therapeutics, Inc., priority 2014, published 2015).

What was measured:
[1] = cited from earlier work; for formation of the metabolite: patients undergoing cardiac surgery
[2] = system: patients with left ventricular systolic dysfunction undergoing cardiac surgery requiring cardiopulmonary bypass; assay: Double-blind, randomized, placebo-controlled clinical trial of levosimendan (Example 1); format: in vivo, human
Method: A randomized, double-blind, placebo-controlled, multicenter study of levosimendan is conducted in subjects with pre-existing left ventricular systolic dysfunction (documented (i) LVEF≦25% in CABG surgery patients, or (ii) LVEF≦35% in CABG with aortic valve surgery patients, CABG with mitral valve surgery patients, or isolated mitral valve surgery patients) with or without heart failure (NYHA functional Class I-IV), undergoing (1) CABG surgery, (2) CABG with aortic valve surgery, (3) CABG with mitral valve surgery, or (4) isolated mitral valve surgery.
All patients are randomized with planned CPB. Approximately 760 subjects are enrolled in the study. Subjects are randomly assigned to receive either levosimendan or a matching placebo in a 1:1 ratio. The study is divided into a screening phase, a double-blind treatment phase, a double-blind post-treatment and follow-up phase from hospital discharge through Day 30. Day 0 is the day of study drug (levosimendan or matching placebo) initiation. All randomly assigned subjects are followed for 90 days, including subjects who were randomly assigned to treatment but not treated.
In the double-blind treatment phase, every attempt is made to start treatment with study drug as soon as possible prior to surgery. However, in all cases study drug is initiated after arterial line insertion and before skin incision. If a Swan-Ganz catheter is planned, it is preferable to insert it prior to study drug initiation. Study drug is administered as described below. Subjects who were randomly assigned to treatment but not treated will be followed (a) through Day 5 for perioperative MI and the need for IABP/LVAD/ECMO, (b) through postoperative […] for postoperative MI (Day 6-10) and postoperative dialysis, and (c) the occurrence of all-cause mortality through Day 90. All subjects may receive additional standard of care medications including inotropes, vasopressors, vasopressin, antiarrhythmics, diuretics, nitrates, and/or nitric oxide as needed. Due to the potential hypotensive effects of the study drug, the concomitant use of vasodilatory drugs should be used with caution.
Subjects are assigned to 1 of 2 treatment groups (levosimendan 0.2 μg/kg/min for first hour, followed by 0.1 μg/kg/min for the next 23 hours or matching placebo) in a 1:1 ratio based on a computer-generated randomization schedule prepared before the start of the study by an independent statistical group not otherwise involved in the conduct or analysis of the study.
The concentration of the diluted infusion is about 50 μg/mL in 5% dextrose (12.5 mg/255 mL in a 250 mL bag; 25 mg/510 mL, 2 vials in a 500 mL bag). The i.v. tubing is primed to fill the volume to the i.v. entry site before starting the infusion. The diluted infusion is administered intravenously by a peripheral or central route. No other treatments are administered via the same line, and no bolus of study drug is administered. Study drug is infused as a continuous infusion of 0.2 μg/kg/min over the first 60 minutes. After 1 hour, the flow rate is decreased to a continuous infusion of 0.1 μg/kg/min. This dose of study drug is continued for the next 23 hours. On completion of the 24-hour infusion period, the study drug infusion is switched off abruptly.
All-cause mortality data (e.g., the cause and date of death) is collected for all subjects up to Day 30 (+5). A follow-up call documents mortality between Day 30 visit and Day 90. […]

[3] = through Day 5, same 24-hour infusion regimen

Row | Structure (SMILES) | formation of the metabolite [1] | time at which maximum concentrations are seen ([1]; after starting a 24-hour infusion, heart failure patients) [days] | elimination half-life ([1]; heart failure patients) [h] | rate of all-cause death at Day 30 as compared to placebo ([2]; Day 30, same 24-hour infusion regimen) | peri- and postoperative morbidity and mortality as compared to placebo ([2]; levosimendan i.v. 0.2 μg/kg/min for first hour, then 0.1 μg/kg/min for 23 hours, started before skin incision, plus standard care) | rate of perioperative MI as compared to placebo [2, 3] | use of mechanical assist (IABP, LVAD, or ECMO) as compared to placebo [2, 3] | need for dialysis as compared to placebo ([2]; through Day 30, same 24-hour infusion regimen) | share of total dose metabolised by the minor pathway (reduction in the intestine to OR-1855) ([1]; of the total levosimendan dose)
1 | C[C@@H]1CC(=O)NN=C1c1ccc(N)cc1 [OR-1855] | delayed | – | – | – | – | – | – | – | –
2 | CC(=O)Nc1ccc(C2=NNC(=O)C[C@H]2C)cc1 [OR-1896] | delayed | 2 to 4 | 70 to 80 | – | – | – | – | – | –
3 | CC1CC(=O)NN=C1c1ccc(NN=C(C#N)C#N)cc1 (single isomer, unassigned; (-)) [levosimendan, (−)-enantiomer of [[4-(1,4,5,6-tetrahydro-4-methyl-6-oxo-3-pyridazinyl)phenyl]hydrazono]prop anedinitrile] | – | – | – | smaller | reduces | smaller | reduced | lesser | approximately 6%
